Results from US20250345392A1, “ANNEXIN A1 LIQUID PHARMACEUTICAL COMPOSITION” (ResoTher Pharma A/S, priority 2022, published 2025).
Like-named read-outs stand apart in the source and are kept apart here. Ends that are not written are not given here.

Assay: Clinical test in humans, three 30-min i.v. infusions 8 hours apart, plasma PK
Format: in vivo
Settings: human; for time of first measurable concentrations after the start of infusion: each infusion; for half-life / AUC(0-t) / AUC / Cmax / Tmax: in vivo, iv, three 30-min i.v. infusions 8 h apart; for half-life: after the last infusion; for AUC(0-t): read-out: AUC0-24
Method: A total of 8 subjects were included in each group. In each group, 6 subjects received the active treatment and 2 received the placebo. The active treatment was as follows in each group: • Group 9 received three 8 hours apart 30-min Peptide 1 intravenous (i.v.) infusions, wherein each i.v. infusion corresponded to a dose of 50 μg/kg. • Group 10 received three 8 hours apart 30-min Peptide 1 intravenous (i.v.) infusions, wherein each i.v. infusion corresponded to a dose of 100 μg/kg. • Group 11 received three 8 hours apart 30-min Peptide 1 intravenous (i.v.) infusions, wherein each i.v. infusion corresponded to a dose of 140 μg/kg. • Group 12 received three 8 hours apart 30-min Peptide 1 intravenous (i.v.) infusions, wherein each i.v. infusion corresponded to a dose of 200 μg/kg. • Group 13 received three 8 hours apart 30-min Peptide 1 intravenous (i.v.) infusions, wherein each i.v. infusion corresponded to a dose of 250 μg/kg.
The tested liquid pharmaceutical composition has a pH of 8.2-8.4, and comprises the following: • i) 5 mg/ml of Peptide 1, • ii) 4% (w/w) mannitol, • iii) 1% (w/w) sucrose, • iv) 0.01% (w/w) Polysorbate-80, • v) 10 mM glycyl-glycine, and • vi) sterile water for injection.
Venous whole blood samples were collected from all subjects.
Plasma samples were analyzed for Peptide 1 using validated Liquid chromatography—Tandem Mass spectrometry (LC-MS/MS) methods by Charles River Laboratories (CRL).
Derivation of PK parameters were carried out by PhinC Development using Phoenix WinNonlin® (Version Phoenix 8.1—Certara—Princeton—USA). A non-compartmental analysis (NCA) approach was chosen.
For the calculation of the PK parameters and characteristics the following rules were applied: • All the plasma concentrations validated by the bioanalytical laboratory and provided to the pharmacokinetics were used for the PK analysis. • The theoretical PK blood sampling time points were used. • At time points in the lag-time between time zero and the first concentration equal or above limit of quantification (LOQ), concentrations below the LOQ (BLQ) were set to zero (0). • Concentrations BLQ between 2 concentrations equal or above LOQ were considered as missing. • Trailing concentrations (at time point between time of last measurable concentrations and time of last blood sample) BLQ were not used in calculations. • For 3 infusions regimen, each infusion was considered separately and BLQ rules were applied for each infusion. […] If the pre-dose value was greater than 5% of Cmax, the subject was dropped from all statistical evaluations.
AUC0-tau was only calculated if there were at least 3 concentrations above LOQ. • AUC0-24: The area under the plasma concentration-time curve from time zero (pre-dose) to 24 h was calculated as the sum of the 3 AUC0-tau: AUC0-24=AUC0-tau1+AUC0-tau2+AUC0-tau3. • AUC0-t: The area under the concentration-time curve from time zero (pre-dose) to the time of last quantifiable concentration was calculated using a linear trapezoidal method after each administration (AUC0-t1, AUC0-t2 and AUC0-t3, where AUC0-t1 was AUC0-t corresponded to the AUC from pre-dose to the last measurable quantifiable concentration following the first infusion). AUC0-t was only calculated if there were at least 3 concentrations above LOQ. • ke: The terminal plasma elimination rate-constant was estimated from log-linear regression analysis of the terminal phase of the plasma concentration-time profile. The number of points included in the terminal phase was determined by visual inspection of the semi-log plots of the plasma concentration-time profiles. A minimum of 3 data points, including the last measured data point and excluding Cmax, had to be available for the regression. The correlation coefficient for the goodness of the fit of the regression line through the data points (r^2) had to be 0.8000 or higher, for the value to be considered reliable. […]

[1] = Group 12 (three infusions of 200 μg/kg)
[2] = Group 13 (three infusions of 250 μg/kg)
[3] = between 50 μg/kg t.i.d. and 250 μg/kg t.i.d. (dose increased by 5-fold)
[4] = between 100 μg/kg t.i.d. and 250 μg/kg t.i.d. (dose increased by 2.5-fold)
[5] = between 140 μg/kg t.i.d. and 250 μg/kg t.i.d. (dose increased by 1.8-fold)
[6] = between 200 μg/kg t.i.d. and 250 μg/kg t.i.d. (dose increased by 1.25-fold)
[7] = 100 ug/kg, 100 μg/kg each, mean
[8] = 140 ug/kg, 140 μg/kg each, mean
[9] = 200 ug/kg, 200 μg/kg each, mean
[10] = 250 ug/kg, 250 μg/kg each, mean

- time up to which concentrations were measurable in all subjects after each infusion [1]: at least 4 h
- time of first measurable concentrations after the start of infusion [1]: 0.16 h
- time up to which concentrations were measurable in all subjects after each infusion [2]: at least 4 h
- time of first measurable concentrations after the start of infusion [2]: 0.16 h
- increase of GM of AUC0-24 [3]: 4.8 fold
- increase of GM of Global Cmax [3]: 5.4 fold
- increase of GM of AUC0-24 [4]: 2.1 fold
- increase of GM of Global Cmax [4]: 2.2 fold
- increase of GM of AUC0-24 [5]: 1.4 fold
- increase of GM of Global Cmax [5]: 1.6 fold
- increase of GM of AUC0-24 [6]: 0.9 fold
- increase of GM of Global Cmax [6]: 1.0 fold
- GM accumulation ratios on Cmax and AUC0-tau (between the first and the last infusion, dose range 50-250 μg/kg, no accumulation observed): around 1
- half-life (50 ug/kg, 50 μg/kg each, GM): 1.37 h
- AUC(0-t) (50 ug/kg, 50 μg/kg each, GM): 1560 ng·h/mL
- AUC (50 ug/kg, 50 μg/kg each, GM, read-out: AUC0-t2): 416 ng·h/mL
- AUC (50 ug/kg, 50 μg/kg each, GM, read-out: AUC0-t3): 433 ng·h/mL
- AUC (50 ug/kg, 50 μg/kg each, GM, read-out: AUC0-tau2): 511 ng·h/mL
- AUC (50 ug/kg, 50 μg/kg each, GM, read-out: AUC0-tau3): 538 ng·h/mL
- Cmax (50 ug/kg, 50 μg/kg each, GM, read-out: Global Cmax): 420 ng/mL
- Tmax (50 ug/kg, 50 μg/kg each, GM, read-out: Global tmax): 4.12 h
- Tmax (50 ug/kg, 50 μg/kg each, GM, read-out: tmax3): 16.5 h
- half-life (50 ug/kg, 50 μg/kg each, mean): 1.38 h
- AUC(0-t) (50 ug/kg, 50 μg/kg each, mean): 1570 ng·h/mL
- AUC (50 ug/kg, 50 μg/kg each, mean, read-out: AUC0-t1): 422 ng·h/mL
- AUC (50 ug/kg, 50 μg/kg each, mean, read-out: AUC0-t2): 420 ng·h/mL
- AUC (50 ug/kg, 50 μg/kg each, mean, read-out: AUC0-t3): 437 ng·h/mL
- AUC (50 ug/kg, 50 μg/kg each, mean, read-out: AUC0-tau1): 513 ng·h/mL
- Cmax (50 ug/kg, 50 μg/kg each, mean, read-out: Cmax3): 398 ng/mL
- Cmax (50 ug/kg, 50 μg/kg each, mean, read-out: Global Cmax): 422 ng/mL
- Tmax (50 ug/kg, 50 μg/kg each, median, read-out: Global tmax): 8.5 h
- half-life (100 ug/kg, 100 μg/kg each, GM): 2.04 h
- AUC (100 ug/kg, 100 μg/kg each, GM, read-out: AUC0-tau1): 1100 ng·h/mL
- AUC (100 ug/kg, 100 μg/kg each, GM, read-out: AUC0-tau2): 1240 ng·h/mL
- AUC (100 ug/kg, 100 μg/kg each, GM, read-out: AUC0-tau3): 1260 ng·h/mL
- Cmax (100 ug/kg, 100 μg/kg each, GM, read-out: Global Cmax): 1020 ng/mL
- Tmax (100 ug/kg, 100 μg/kg each, GM, read-out: Global tmax): 11.8 h
- half-life [7]: 2.18 h
- AUC(0-t) [7]: 3620 ng·h/mL
- AUC (100 ug/kg, 100 μg/kg each, mean, read-out: AUC0-t2): 1130 ng·h/mL
- AUC (100 ug/kg, 100 μg/kg each, mean, read-out: AUC0-t3): 1090 ng·h/mL
- Tmax (100 ug/kg, 100 μg/kg each, median, read-out: Global tmax): 12.5 h
- Tmax (100 ug/kg, 100 μg/kg each, median, read-out: tmax3): 16.5 h
- AUC (140 ug/kg, 140 μg/kg each, GM, read-out: AUC0-t1): 1660 ng·h/mL
- AUC (140 ug/kg, 140 μg/kg each, GM, read-out: AUC0-t2): 1760 ng·h/mL
- AUC (140 ug/kg, 140 μg/kg each, GM, read-out: AUC0-tau1): 1740 ng·h/mL
- AUC (140 ug/kg, 140 μg/kg each, GM, read-out: AUC0-tau2): 1850 ng·h/mL
- AUC (140 ug/kg, 140 μg/kg each, GM, read-out: AUC0-tau3): 1690 ng·h/mL
- Cmax (140 ug/kg, 140 μg/kg each, GM, read-out: Global Cmax): 1400 ng/mL
- Tmax (140 ug/kg, 140 μg/kg each, GM, read-out: Global tmax): 3.29 h
- half-life [8]: 1.94 h
- AUC(0-t) [8]: 5410 ng·h/mL
- AUC (140 ug/kg, 140 μg/kg each, mean, read-out: AUC0-t1): 1690 ng·h/mL
- AUC (140 ug/kg, 140 μg/kg each, mean, read-out: AUC0-t2): 1870 ng·h/mL
- AUC (140 ug/kg, 140 μg/kg each, mean, read-out: AUC0-t3): 1600 ng·h/mL
- AUC (140 ug/kg, 140 μg/kg each, mean, read-out: AUC0-tau1): 1760 ng·h/mL
- AUC (140 ug/kg, 140 μg/kg each, mean, read-out: AUC0-tau2): 1940 ng·h/mL
- Cmax (140 ug/kg, 140 μg/kg each, mean, read-out: Global Cmax): 1430 ng/mL
- Tmax (140 ug/kg, 140 μg/kg each, median, read-out: Global tmax): 8.41 h
- Tmax (140 ug/kg, 140 μg/kg each, median, read-out: tmax3): 16.5 h
- half-life (200 ug/kg, 200 μg/kg each, GM): 1.93 h
- AUC(0-t) (200 ug/kg, 200 μg/kg each, GM): 8020 ng·h/mL
- AUC (200 ug/kg, 200 μg/kg each, GM, read-out: AUC0-t2): 2560 ng·h/mL
- AUC (200 ug/kg, 200 μg/kg each, GM, read-out: AUC0-t3): 2690 ng·h/mL
- AUC (200 ug/kg, 200 μg/kg each, GM, read-out: AUC0-tau1): 2590 ng·h/mL
- AUC (200 ug/kg, 200 μg/kg each, GM, read-out: AUC0-tau2): 2650 ng·h/mL
- Cmax (200 ug/kg, 200 μg/kg each, GM, read-out: Global Cmax): 2350 ng/mL
- Tmax (200 ug/kg, 200 μg/kg each, GM, read-out: Global tmax): 2.57 h
- half-life [9]: 1.94 h
- AUC(0-t) [9]: 8120 ng·h/mL
- AUC (200 ug/kg, 200 μg/kg each, mean, read-out: AUC0-t1): 2520 ng·h/mL
- AUC (200 ug/kg, 200 μg/kg each, mean, read-out: AUC0-t2): 2610 ng·h/mL
- AUC (200 ug/kg, 200 μg/kg each, mean, read-out: AUC0-t3): 2720 ng·h/mL
- AUC (200 ug/kg, 200 μg/kg each, mean, read-out: AUC0-tau1): 2620 ng·h/mL
- AUC (200 ug/kg, 200 μg/kg each, mean, read-out: AUC0-tau2): 2690 ng·h/mL
- AUC (200 ug/kg, 200 μg/kg each, mean, read-out: AUC0-tau3): 2810 ng·h/mL
- Tmax (200 ug/kg, 200 μg/kg each, median, read-out: Global tmax): 4.5 h
- Tmax (200 ug/kg, 200 μg/kg each, median, read-out: tmax3): 16.5 h
- AUC(0-t) (250 ug/kg, 250 μg/kg each, GM): 7490 ng·h/mL
- AUC (250 ug/kg, 250 μg/kg each, GM, read-out: AUC0-t3): 2410 ng·h/mL
- AUC (250 ug/kg, 250 μg/kg each, GM, read-out: AUC0-tau1): 2590 ng·h/mL
- AUC (250 ug/kg, 250 μg/kg each, GM, read-out: AUC0-tau2): 2390 ng·h/mL
- Cmax (250 ug/kg, 250 μg/kg each, GM, read-out: Global Cmax): 2260 ng/mL
- Tmax (250 ug/kg, 250 μg/kg each, GM, read-out: Global tmax): 3.69 h
- Tmax (250 ug/kg, 250 μg/kg each, GM, read-out: tmax1): 0.46 h
- half-life [10]: 1.88 h
- AUC(0-t) [10]: 7550 ng·h/mL
- AUC (250 ug/kg, 250 μg/kg each, mean, read-out: AUC0-t1): 2540 ng·h/mL
- AUC (250 ug/kg, 250 μg/kg each, mean, read-out: AUC0-t2): 2350 ng·h/mL
Substance: AMVSEFLKQAWFIENEEQEYVQTLKSSKGGPGSAVSPYPTFNPSSDV-NH2 [Peptide 1]
